Assay results from article PMC6437697 (Journal of Medicinal Chemistry, 2019).

How the values were obtained:
Assay in all cases: KINOMEscan
Assay type in all cases: binding
Details in all cases: read-out: % control activity remaining
ALK = biological target: T1, ALK (Homo sapiens, UniProt Q9UM73)
T1 construct: purchased Eurofins DiscoverX KINOMEscan

[1] = biological target: T2, ABL1(F317I)-nonphosphorylated (Homo sapiens, UniProt P00519, F317I)
T2 construct: purchased Eurofins DiscoverX KINOMEscan

ZAP70 = biological target: T3, ZAP70 (Homo sapiens, UniProt P43403)
T3 construct: purchased Eurofins DiscoverX KINOMEscan
T3 sequence (P43403 1-619): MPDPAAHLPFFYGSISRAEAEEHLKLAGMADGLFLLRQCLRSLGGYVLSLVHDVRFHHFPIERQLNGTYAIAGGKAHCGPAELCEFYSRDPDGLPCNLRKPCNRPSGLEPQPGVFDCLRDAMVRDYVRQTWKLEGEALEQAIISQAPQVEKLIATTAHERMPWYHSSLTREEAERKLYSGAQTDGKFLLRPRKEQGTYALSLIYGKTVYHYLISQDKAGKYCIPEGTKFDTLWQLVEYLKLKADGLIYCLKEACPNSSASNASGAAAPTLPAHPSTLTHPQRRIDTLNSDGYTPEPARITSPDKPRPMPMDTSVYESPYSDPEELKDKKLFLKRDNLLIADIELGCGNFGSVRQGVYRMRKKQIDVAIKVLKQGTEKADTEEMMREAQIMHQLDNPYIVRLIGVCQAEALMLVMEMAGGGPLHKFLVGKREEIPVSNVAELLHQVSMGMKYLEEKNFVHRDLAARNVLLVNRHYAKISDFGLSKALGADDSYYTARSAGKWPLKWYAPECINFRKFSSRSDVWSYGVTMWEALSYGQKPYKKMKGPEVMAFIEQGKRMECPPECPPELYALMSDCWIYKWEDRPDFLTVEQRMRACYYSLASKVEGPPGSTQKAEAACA

EPHA2 = biological target: T4, EPHA2 (Homo sapiens, UniProt P29317)
T4 construct: purchased Eurofins DiscoverX KINOMEscan

ASK1 = biological target: T5, ASK1 (Homo sapiens, UniProt Q99683)
T5 construct: purchased Eurofins DiscoverX KINOMEscan
T5 sequence (Q99683 1-1374): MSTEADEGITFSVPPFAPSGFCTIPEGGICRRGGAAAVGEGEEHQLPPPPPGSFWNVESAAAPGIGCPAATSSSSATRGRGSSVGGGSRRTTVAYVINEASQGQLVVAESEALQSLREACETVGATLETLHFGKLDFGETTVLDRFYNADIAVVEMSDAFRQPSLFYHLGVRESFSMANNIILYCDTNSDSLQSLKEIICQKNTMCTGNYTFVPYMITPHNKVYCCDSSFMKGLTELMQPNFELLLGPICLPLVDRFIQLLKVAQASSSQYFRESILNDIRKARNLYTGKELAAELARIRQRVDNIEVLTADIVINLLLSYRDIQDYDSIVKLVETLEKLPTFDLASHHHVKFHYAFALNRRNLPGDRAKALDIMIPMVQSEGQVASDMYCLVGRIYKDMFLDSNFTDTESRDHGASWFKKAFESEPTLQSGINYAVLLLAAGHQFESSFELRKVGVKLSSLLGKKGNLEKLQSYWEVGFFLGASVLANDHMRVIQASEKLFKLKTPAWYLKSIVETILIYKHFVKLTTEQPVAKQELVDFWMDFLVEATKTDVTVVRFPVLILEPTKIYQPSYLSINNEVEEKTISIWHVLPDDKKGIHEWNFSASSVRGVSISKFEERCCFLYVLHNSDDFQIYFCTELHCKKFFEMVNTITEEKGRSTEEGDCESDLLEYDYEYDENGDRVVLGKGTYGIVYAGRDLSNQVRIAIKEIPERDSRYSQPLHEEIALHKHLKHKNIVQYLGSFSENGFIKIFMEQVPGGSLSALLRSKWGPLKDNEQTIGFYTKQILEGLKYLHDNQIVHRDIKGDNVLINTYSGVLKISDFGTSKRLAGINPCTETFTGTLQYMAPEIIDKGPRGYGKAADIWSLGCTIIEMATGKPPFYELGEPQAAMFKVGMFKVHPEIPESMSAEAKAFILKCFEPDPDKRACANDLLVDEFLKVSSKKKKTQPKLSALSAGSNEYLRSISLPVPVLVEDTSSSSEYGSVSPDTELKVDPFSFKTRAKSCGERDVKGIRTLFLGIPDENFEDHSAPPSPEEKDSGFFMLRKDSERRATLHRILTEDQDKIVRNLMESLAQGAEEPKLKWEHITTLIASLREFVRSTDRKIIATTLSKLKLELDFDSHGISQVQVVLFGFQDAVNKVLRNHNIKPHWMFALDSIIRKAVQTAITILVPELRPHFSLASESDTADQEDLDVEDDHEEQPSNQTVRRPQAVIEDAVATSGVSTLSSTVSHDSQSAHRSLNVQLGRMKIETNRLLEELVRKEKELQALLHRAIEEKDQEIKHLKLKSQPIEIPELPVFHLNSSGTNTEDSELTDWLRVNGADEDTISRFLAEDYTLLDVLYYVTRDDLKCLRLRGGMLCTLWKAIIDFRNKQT

T2 sequence (P00519 whole entry F317I): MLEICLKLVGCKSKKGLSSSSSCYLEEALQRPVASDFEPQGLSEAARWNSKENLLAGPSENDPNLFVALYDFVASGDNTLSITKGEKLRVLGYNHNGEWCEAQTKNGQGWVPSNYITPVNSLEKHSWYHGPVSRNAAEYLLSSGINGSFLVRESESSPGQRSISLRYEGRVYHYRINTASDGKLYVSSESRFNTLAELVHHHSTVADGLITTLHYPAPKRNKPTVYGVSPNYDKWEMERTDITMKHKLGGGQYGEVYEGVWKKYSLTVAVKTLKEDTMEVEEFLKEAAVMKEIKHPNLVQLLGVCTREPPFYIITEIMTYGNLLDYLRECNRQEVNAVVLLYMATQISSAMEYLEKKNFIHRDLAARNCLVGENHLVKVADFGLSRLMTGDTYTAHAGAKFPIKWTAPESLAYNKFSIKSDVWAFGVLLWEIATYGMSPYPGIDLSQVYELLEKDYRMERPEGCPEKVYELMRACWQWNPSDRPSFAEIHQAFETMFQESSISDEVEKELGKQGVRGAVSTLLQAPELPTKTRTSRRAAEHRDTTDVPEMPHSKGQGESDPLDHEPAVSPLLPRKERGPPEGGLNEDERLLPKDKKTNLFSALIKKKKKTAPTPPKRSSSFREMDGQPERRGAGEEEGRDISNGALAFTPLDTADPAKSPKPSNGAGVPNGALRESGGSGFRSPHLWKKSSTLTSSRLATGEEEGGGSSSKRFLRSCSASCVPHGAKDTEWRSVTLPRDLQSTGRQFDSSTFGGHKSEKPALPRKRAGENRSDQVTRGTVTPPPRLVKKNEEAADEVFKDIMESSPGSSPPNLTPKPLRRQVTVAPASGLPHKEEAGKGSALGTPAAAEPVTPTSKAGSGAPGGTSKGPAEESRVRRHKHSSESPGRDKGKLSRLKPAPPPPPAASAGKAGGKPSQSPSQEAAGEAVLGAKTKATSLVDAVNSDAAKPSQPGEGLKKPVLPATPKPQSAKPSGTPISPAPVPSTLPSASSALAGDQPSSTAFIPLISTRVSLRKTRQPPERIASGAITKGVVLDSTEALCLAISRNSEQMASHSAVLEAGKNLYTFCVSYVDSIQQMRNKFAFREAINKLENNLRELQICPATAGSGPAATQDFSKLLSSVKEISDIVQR
T1 sequence (Q9UM73 19-1620): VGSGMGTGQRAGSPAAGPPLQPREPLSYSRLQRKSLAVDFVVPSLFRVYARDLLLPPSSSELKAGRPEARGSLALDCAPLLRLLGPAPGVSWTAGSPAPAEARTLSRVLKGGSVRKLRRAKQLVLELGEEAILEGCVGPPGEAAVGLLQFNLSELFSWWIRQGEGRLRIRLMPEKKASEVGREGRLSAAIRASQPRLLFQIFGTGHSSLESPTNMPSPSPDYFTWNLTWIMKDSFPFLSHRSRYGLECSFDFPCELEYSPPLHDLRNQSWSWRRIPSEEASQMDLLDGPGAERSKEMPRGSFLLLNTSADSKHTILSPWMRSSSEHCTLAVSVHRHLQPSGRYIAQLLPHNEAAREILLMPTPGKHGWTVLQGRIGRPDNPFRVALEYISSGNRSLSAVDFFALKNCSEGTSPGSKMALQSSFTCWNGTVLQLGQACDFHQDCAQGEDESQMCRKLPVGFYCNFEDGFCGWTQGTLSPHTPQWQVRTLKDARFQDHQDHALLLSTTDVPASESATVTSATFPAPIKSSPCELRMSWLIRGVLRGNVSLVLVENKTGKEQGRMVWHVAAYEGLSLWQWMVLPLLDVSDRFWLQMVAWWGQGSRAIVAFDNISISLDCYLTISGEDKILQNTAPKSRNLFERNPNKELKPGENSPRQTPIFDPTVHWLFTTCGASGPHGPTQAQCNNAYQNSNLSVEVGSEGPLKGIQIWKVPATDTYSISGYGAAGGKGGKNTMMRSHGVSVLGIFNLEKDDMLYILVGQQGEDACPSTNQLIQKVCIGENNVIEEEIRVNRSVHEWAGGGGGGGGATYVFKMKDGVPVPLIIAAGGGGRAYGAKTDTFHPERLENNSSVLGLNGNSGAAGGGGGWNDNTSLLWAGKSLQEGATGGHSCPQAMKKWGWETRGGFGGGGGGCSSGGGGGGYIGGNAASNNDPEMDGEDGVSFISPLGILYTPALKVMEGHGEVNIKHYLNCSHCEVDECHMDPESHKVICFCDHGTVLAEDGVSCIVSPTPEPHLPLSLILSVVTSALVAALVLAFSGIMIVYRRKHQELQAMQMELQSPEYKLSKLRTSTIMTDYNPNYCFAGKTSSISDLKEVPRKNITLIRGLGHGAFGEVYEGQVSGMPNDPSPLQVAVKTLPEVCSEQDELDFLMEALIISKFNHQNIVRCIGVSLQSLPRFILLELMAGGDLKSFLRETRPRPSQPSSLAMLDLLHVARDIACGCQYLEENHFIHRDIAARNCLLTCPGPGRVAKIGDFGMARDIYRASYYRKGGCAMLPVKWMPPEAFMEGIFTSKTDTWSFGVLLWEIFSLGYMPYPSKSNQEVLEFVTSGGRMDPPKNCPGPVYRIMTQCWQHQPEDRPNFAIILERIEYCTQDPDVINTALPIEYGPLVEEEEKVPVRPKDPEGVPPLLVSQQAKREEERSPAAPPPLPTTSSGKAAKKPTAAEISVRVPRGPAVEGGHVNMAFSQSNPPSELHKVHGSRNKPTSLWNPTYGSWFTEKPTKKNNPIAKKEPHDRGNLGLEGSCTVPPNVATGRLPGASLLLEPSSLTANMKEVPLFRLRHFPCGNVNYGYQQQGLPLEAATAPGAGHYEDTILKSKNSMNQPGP
T4 sequence (P29317 24-976): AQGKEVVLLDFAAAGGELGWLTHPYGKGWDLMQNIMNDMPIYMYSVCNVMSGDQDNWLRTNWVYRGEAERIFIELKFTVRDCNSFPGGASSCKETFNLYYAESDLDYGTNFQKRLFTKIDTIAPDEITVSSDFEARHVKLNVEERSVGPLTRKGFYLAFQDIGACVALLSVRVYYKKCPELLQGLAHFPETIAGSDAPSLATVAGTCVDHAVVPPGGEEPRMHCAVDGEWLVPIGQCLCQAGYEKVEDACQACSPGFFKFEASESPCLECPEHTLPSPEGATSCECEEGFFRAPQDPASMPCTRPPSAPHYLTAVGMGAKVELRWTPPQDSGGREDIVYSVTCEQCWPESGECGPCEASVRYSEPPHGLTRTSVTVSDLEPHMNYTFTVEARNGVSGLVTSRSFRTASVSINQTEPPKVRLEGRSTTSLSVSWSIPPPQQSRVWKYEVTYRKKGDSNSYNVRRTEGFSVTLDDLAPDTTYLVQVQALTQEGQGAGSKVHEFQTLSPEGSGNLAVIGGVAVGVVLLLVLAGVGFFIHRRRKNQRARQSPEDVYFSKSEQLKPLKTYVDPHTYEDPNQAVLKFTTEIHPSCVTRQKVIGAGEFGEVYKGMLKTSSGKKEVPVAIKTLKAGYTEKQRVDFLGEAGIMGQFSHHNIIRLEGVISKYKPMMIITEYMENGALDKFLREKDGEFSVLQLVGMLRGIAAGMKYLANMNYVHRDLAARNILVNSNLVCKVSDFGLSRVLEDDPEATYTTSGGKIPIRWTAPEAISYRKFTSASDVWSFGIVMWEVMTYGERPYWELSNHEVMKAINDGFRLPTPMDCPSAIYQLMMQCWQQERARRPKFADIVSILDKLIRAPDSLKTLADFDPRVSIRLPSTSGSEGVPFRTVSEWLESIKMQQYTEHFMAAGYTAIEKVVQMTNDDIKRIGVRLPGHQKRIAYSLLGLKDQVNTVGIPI

Compound	remaining binding at 1 µM (ALK) [%]	remaining binding at 1 µM [1] [%]	remaining binding at 1 µM (ZAP70) [%]	remaining binding at 1 µM (EPHA2) [%]	remaining binding at 1 µM (ASK1) [%]
Clc1cc(NCC2CC2)c2ncc(-c3ccc4[nH]ncc4c3)n2n1 [compound 2, 6-Chloro-N-(cyclopropylmethyl)-3-(1H-indazol-5-yl)imidazo[1,2-b]pyridazin-8-amine]	92	71	84	94	70
O=C(CN1CCOCC1)N[C@H]1CC[C@H](Nc2cc(Cl)nn3c(-c4ccc5[nH]ncc5c4)cnc23)CC1 [compound 26]	94	28	100	99	100
CN1CCC(CNc2cc(Cl)nn3c(-c4cc5nc(Nc6ccccc6)[nH]c5cc4F)cnc23)CC1 [compound 31, 6-Chloro-3-(6-fluoro-2-(phenylamino)-1H-benzo[d]imidazol-5-yl)-N-((1-methylpiperidin-4-yl)methyl)imidazo[1,2-b]pyridazin-8-amine]	70	63	83	94	100
